Test system: Trichoderma pseudokoningii (ATCC #26801), Aureobasidium pullulans (ATCC #9348), and a mixture of Aspergillus niger (ATCC #6275) and Penicillium funiculosum …
Assay: ASTM D4445-10 cumulative fungal growth of all three examined organisms and Synergy Index
Format: cell-based
Settings: for Σ Fungal Growth: cumulative score of the three sets of fungi; for % of Water-Only Control: Σ fungal growth normalized to water-only control
Protocol: (§1) Radiata pine lumber was machined to specimens with size of 7 mm by 20 mm in cross section and 70 mm long. Solutions prepared as described above were used to treat the machined Radiata pine specimens. The treatment was carried out in a 600 mL beaker. Two unused test pieces were placed on the bottom of the beaker, and the specimens, four in a layer, were placed on the previous layers until all the treatment replicates were included. The specimens were held down with a finger bearing down on a watch glass and submerged in treating solution for 15 seconds. After 15 seconds, the beaker was drained but with specimens still held down, and then was tightly covered with a piece of plastic sheet to prevent drying and was stored overnight. Similarly, untreated control specimens were treated with water.
One day after treatment, duplicate wood specimens from the same treatment group were tested according to ASTM D4445-10 methodology. The wood specimens were checked for inhibition against sapstain fungi and molds Trichoderma pseudokoningii (ATCC #26801), Aureobasidium pullulans (ATCC #9348), and a mixture of Aspergillus niger (ATCC #6275) and Penicillium funiculosum (ATCC #11797). This method is described below:
(1) Placed duplicate wood specimens on top of polyester mesh and laid on a stack of four (4) filter paper squares (approximately 2 inches by 2.5 inches) presoaked in 5 mL sterile DI water.
(2) Prepared fungal mixture from freshly grown slants of each test organism.
(3) Added 2 mL of DI water and 0.1% Tween 20 to the slant and inverted to mix.
(4) Poured the concentrate into a total volume of 16 mL.
(5) Enumerated the stock via hemocytometer and adjusted to […] with additional DI water.
(6) Inoculated wood specimens via applying 0.25 mL of one of the three separate fungal suspensions to the top of the wood and distributing evenly on the surface with an L-spreader.
(7) Placed inoculated wood specimens in a humidity chamber for one month at 95% or larger relative humidity and 28° C.
(8) Rated wood specimens with a rating from “0” (No Growth) to “5” (Complete Growth).
In order to show more directly the possible synergy in the invention, the results are presented by applying the Synergy Index (S.I.), which is analyzed using the following equation:
FGA=Cumulative fungal growth scores of all three examined organisms of compound […], acting alone
FGA′=Cumulative fungal growth scores of all three examined organisms of compound […], in the mixture
FGB=Cumulative fungal growth scores of all three examined organisms of compound […], acting alone
FGB′=Cumulative fungal growth scores of all three examined organisms of compound […], in the mixture
When SI is greater than 1, antagonism is indicated. […] When SI equals to 1, the action of biocides is additive.
as §1, with “treat” for “treat the”
One day after treatment, duplicate wood specimens from the same treatment group were tested according to ASTM D4445-10(2019) methodology. The wood specimens were checked for inhibition against sapstain fungi and molds Trichoderma pseudokoningii (ATCC #26801), Aureobasidium pullulans (ATCC #9348), and a mixture of Aspergillus niger (ATCC #6275) and Penicillium funiculosum (ATCC #11797). […]

[1] = 2400 ppm treatment solution, Example 2
[2] = 2400 ppm treatment solution, Example 3
[3] = 4800 ppm treatment solution, Example 2

Row | Compound | Σ Fungal Growth [1] | % of Water-Only Control [1] | Σ Fungal Growth [2] | % of Water-Only Control [2] | Σ Fungal Growth [3] | % of Water-Only Control [3]
1 | CCCCNC(=O)OCC#CI [IPBC, 3-iodo-2-propynyl butyl carbamate] | 2.6 | 18.9% | 3.8 | 29.23% | 2.8 | 19.8%
2 | didecyl bis(hydroxyethyl) ammonium borate [DPAB] | 10.8 | 77.5% | 7.6 | 58.46% | 7.6 | 55.0%

— US20220161456A1, “S[…] PRESERVATIVE COMPOSITION COMPRISING POLYMERIC BETAINE AND CARBAMATE” (Troy Corporation, priority 2019, published 2022)
